Patent US5187165A, “Memory enhancing and analgesic 1,2,3a,8,8a-hexahydro-3a,8(and 1,3a,8)-di(and tri)methylpyrrolo[2,3-b]indoles” (priority 1988, dated 1993)
Structures can show the parent of a compound that is named as a salt. Where two headings read alike, the source gives them in different places.

Tests used:
[1] = target: T1, acetylcholinesterase (Brain AChE) (Rattus norvegicus, UniProt P37136); assay: In Vitro Inhibition of Acetylcholinesterase Activity in Rat Striatum; type: biochemical
T1 construct: corpora striata dissected free, weighed and homogenized in 19 volumes; from tissue; host or cells: corpora striata of male Wistar rats, crude homogenate in phosphate buffer
T1 sequence (P37136 32-614): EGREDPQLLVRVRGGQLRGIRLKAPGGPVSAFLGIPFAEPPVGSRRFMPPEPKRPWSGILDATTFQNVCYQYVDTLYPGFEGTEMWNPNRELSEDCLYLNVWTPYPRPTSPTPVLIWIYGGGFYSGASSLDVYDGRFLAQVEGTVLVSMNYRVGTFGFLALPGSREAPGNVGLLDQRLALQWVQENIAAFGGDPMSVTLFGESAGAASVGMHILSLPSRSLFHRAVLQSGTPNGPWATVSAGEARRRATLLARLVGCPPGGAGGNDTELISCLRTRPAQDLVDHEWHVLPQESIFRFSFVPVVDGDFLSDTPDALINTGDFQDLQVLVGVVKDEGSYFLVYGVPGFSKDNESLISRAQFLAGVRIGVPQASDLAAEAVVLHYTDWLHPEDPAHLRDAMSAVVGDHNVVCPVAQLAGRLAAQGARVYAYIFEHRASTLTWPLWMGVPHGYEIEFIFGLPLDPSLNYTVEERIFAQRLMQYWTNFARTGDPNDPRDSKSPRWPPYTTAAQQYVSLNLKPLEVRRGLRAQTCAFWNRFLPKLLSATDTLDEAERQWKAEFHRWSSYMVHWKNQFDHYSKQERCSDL
Description: (§1) Cholinesterases are found throughout the body, both in the brain and in serum. However, only brain acetylcholinesterase (AChE) distribution is correlated with central cholinergic innervation. […] We have determined in vitro inhibition of acetylcholinesterase activity in rat striatum and in vitro inhibition of butrylcholinesterase activity in human serum according to the methods described below.
The method described below was used in this invention for assaying cholinesterase activity. This is a modification of the method of Ellman et al., Biochem. Pharmacol. 7, 98 (1961).
1. 0.05M Phosphate buffer, pH 7.2
(§2) (a) 9.9 mg 5,5-dithiobisnitrobenzoic acid (DTNB) (0.25 mM)
(b) 99 mg s-acetylthiocholine chloride (5 mM)
(§3) (c) q.s. to 100 ml with 0.05M phosphate buffer, pH 7.2 (reagent 1)
Male Wistar rats are decapitated, brains rapidly removed, corpora striata dissected free, weighed and homogenized in 19 volumes (approximately 7 mg protein/ml) of 0.05M phosphate buffer, pH 7.2 using a Potter-Elvehjem homogenizer. A 50 microliter aliquot of the homogenate is added to 50 microliter vehicle of various concentrations of the test drug and preincubated for 10 minutes at room temperature.
1. For routine IC50 determinations the Abbott Bichromatic Analyzer, ABA-100, is used to determine acetylcholinesterase activity.
Incubation temperature: 30° C.
Following the 10 minute preincubation of the tissue (enzyme) with the inhibitor, the samples are mixed with the substrate chromogen buffer by the ABA-100. Using the indicated instrument settings the ABA-100 automatically reads the color reaction and prints out the results in enzyme units after 15 minutes.
2. The enzyme activity can also be measured with Gilford 250 spectrophotometer. This method is used for more accurate kinetic measurments.
Reagents are added to the reference and sample side of a split curvette as follows.
The uninhibited activity of the enzyme (tissue homogenate) is first determined. Test drugs are made up in a suitable solvent and added in suitable dilutions to the buffer vehicle. The reaction rate is determined by the slope of the recorded absorbance change. The actual rate (moles/liter/min) can be calculated as described in the following formula
rate(moles/liter/min)=slope/(1.36×10^4).

[2] = tested on: scopolamine-induced memory deficit; assay: Dark Avoidance Assay (scopolamine induced memory deficit reversal); type: in vivo, mice; conditions: Mus musculus, sc, 24 h, read-out: % of Animals with Scopolamine Induced Memory Deficit Reversal
Procedure: In this assay mice are tested for their ability to remember an unpleasant stimulus for a period of 24 hours. A mouse is placed in a chamber that contains a dark compartment; a strong incandescent light drives it to the dark compartment, where an electric shock is administered through metal plates on the floor. The animal is removed from the testing apparatus and tested again, 24 hours later, for the ability to remember the electric shock.
If scopolamine, an anticholinergic that is known to cause memory impairment, is administered before an animal's initial exposure to the test chamber, the animal re-enters the dark compartment shortly after being placed in the test chamber 24 hours later. This effect of scopolamine is blocked by an active test compound, resulting in a greater interval before re-entry into the dark compartment.
The results for an active compound are expressed as the percent of a group of animals in which the effect of scopolamine is blocked, as manifested by an increased interval between being placed in the test chamber and re-entering the dark compartment.

[3] = target: T2, butyrylcholinesterase (Serum AChE) (Homo sapiens, UniProt P06276); assay: In Vitro Inhibition of Butyrylcholinesterase Activity in Human Serum; type: biochemical
T2 construct: A vial of lyophilized human serum; purchased Biodynamics, Houston, Tex; (Precilip); host or cells: lyophilized human serum, reconstituted in water; enzyme not purified
Description: as §1
This assay can be used in conjunction with the acetylcholinesterase assay to determine the enzyme selectivity of various chloinesterase inhibitors.
Butyrylcholinesterase (BChE), which is sometimes called pseudocholinesterase, preferentially hydrolyzes butyrylcholine. This enzyme is found in the highest amounts in serum, but its physiological role is not known.
as §2
(b) 113 mg s-butyrylthiochloine chloride (5 mM)
as §3
A vial of lyophilized human serum (Precilip, Biodynamics, Houston, Tex. is reconstituted in 3 ml of distilled water. A 10 microliter aliquot of this suspension is added to 90 microliter of the vehicle or various concentrations of the test drug and preincubated for 10 minutes at room temperature.
Substantially the same procedure is used as described above in Section C of the Procedure used for determining the inhibition of acetylcholinsterase activity.

[4] = tested on: pressure stress by artery clip on tail; assay: Modified Haffner's Analgesia; type: in vivo, mice; conditions: sc; for ANALGESIC ACTIVITY (ED50), Modified Haffner's Analgesia: mice, peak time of drug activity; for ED50: Mus musculus, read-out: ANALGESIC ACTIVITY (ED50), Modified Haffner's Analgesia, mice, sc, peak time of drug activity
Description: The latter assay is used to evaluate analgesic activity by measuring drug-induced changes in the sensitivity of mice to pressure stress by placing an artery clip (21/2 inches long) on their tail. The procedure used is a modification of the test developed by Haffner, Dtsch. Med. Wschr., 55, 731 (1929), and it is described below.
Male mice (Charles River, CD-1) from 18-30 grams are used for the test. An artery clip is applied to the root of the tail of a mouse (approximately 1/2 inch from the body) to induce pain. The animal quickly responds to this noxious stimuli by biting the clip or the location of the clip. This reaction time, the interval between stimulus onset and response, is recorded in 1/10-second increments by a stop watch.
For a time response, the screening dose (25 mg/kg) is administered subcutaneously (10 ml/kg) to the animal receiving food and water ad libitum before testing. Animals receiving the compound orally are fasted 18-24 hours before drug administration. Drug to be tested is prepared with distilled water and if insoluble, one drop of a surfactant is added.
Twenty-eight animals (seven/group) are administered the drug 15, 30, 45 and 60 minutes prior to testing.
The cut-off time (CO) is determined by taking the (x) average +(3) standard (SD) deviations of the combined response latencies of the control mice in all time periods.
Any reaction time, in subsequent drug tests, which is greater than the CO (for the same time period) therefore exceeds 99% of a normal Gaussian distribution and is called "positive response" indicative of analgesic activity. A time response indicates the period of greatest analgesic effect after dosing. The ED50 is determined at the peak time of drug activity. A minimum of three dose groups are used. ED50 's are calculated using computer analysis.

[5] = tested on: 2-phenyl-1,4-benzoquinone-induced writhing; assay: 2-phenyl-1,4-benzoquinone-induced writhing (PQW) test; type: in vivo; conditions: mice; for ED50: Mus musculus, read-out: ANALGESIC ACTIVITY (ED50), PQW
Description: Compounds I of the present invention are also useful as analgesic agents due to their ability to alleviate pain in mammals. […] Exptl. Biol. Med., 95,729 (1957)] and in modified Haffner's analgesia.

norepinephrine uptake = type: biochemical; conditions: rat brain synaptosomes, 50 nM 3H-NE, 37° C., 5 min; read-out: Reuptake Inhibition of neurotransmitters, Norepinephrine

T2 sequence (P06276 29-602): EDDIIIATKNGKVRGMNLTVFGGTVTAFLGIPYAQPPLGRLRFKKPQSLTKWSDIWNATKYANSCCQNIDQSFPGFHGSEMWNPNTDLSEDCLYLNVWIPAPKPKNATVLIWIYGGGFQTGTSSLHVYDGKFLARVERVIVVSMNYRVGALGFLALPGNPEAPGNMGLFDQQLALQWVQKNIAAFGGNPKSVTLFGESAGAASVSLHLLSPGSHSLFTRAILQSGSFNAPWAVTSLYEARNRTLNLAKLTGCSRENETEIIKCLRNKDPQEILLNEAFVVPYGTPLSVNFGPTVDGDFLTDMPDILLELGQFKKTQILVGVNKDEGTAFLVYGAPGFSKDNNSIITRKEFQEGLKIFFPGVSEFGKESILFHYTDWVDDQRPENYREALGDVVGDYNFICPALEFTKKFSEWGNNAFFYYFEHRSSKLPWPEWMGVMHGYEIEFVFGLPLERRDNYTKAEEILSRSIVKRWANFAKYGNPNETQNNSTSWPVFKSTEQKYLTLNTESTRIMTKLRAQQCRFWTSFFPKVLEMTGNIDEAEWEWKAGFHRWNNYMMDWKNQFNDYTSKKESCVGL

CN1CC[C@@]2(C)c3cc(OC(=O)NC45CC6CC(CC(C6)C4)C5)ccc3N(C)[C@@H]12 [(3aS-cis)-1,2,3,3a,8,8a-Hexahydro-1,3a,8-trimethylpyrrolo[2,3-b]indol-5-ol,(1-adamantyl)carbamate ester]
IC50 [1]: 3.05 µM
responders at 1.25 mg/kg [2]: 27%
IC50 [3]: > 100 µM

CN1CC[C@@]2(C)c3cc(O)cc(Br)c3N(C)[C@@H]12 (relative stereo) [7-bromo-1,2,3,3a,8,8a-hexahydro-1,3a,8-trimethylpyrrolo[2,3-] [7-Bromo-1,2,3,3a,8,8a-hexahydro-1,3a,8-trimethylpyrrolo[2,3-b]indol-5-ol]
ANALGESIC ACTIVITY (ED50), Modified Haffner's Analgesia [4]: 0.22 mg/kg
ANALGESIC ACTIVITY (ED50), PQW ([5]; po): 0.33 mg/kg
ANALGESIC ACTIVITY (ED50), PQW ([5]; sc): 0.17 mg/kg

Cc1cc(O)cc2c1N(C)[C@H]1N(C)CC[C@@]21C (relative stereo) [(3aS-cis)-1,2,3,3a,8,8a-Hexahydro-1,3a,7,8-tetramethylpyrrolo[2,3-b]indol-5-ol]
ED50 [4]: 0.31 mg/kg
ED50 ([5]; sc, sc): 0.22 mg/kg

C=CCN1CCC2(C)c3cc(O)ccc3N(C)C12 (centres unmarked) [1,2,3,3a,8,8a-Hexahydro-3a,8-dimethyl-1-(2-propenyl)-pyrrolo[2,3-b]indol-5-ol salicylate]
ED50 [4]: 2.56 mg/kg
ED50 ([5]; sc, sc): 3.9 mg/kg

CN1CC[C@@]2(C)c3cc(OC(=O)NC4CCCCCCCCCCC4)ccc3N(C)[C@@H]12 [(3aS-cis)-1,2,3,3a,8,8a-Hexahydro-1,3a,8-trimethylpyrrolo[2,3-b]indol-5-ol,cyclododecyl carbamate ester]
IC50 [1]: 0.41 µM
IC50 [3]: > 1000 µM

CN1CC[C@@]2(C)c3cc(O)cc(Br)c3N(C)[C@@H]12 (relative stereo) [(3aS-cis)-7-Bromo-1,2,3,3a, 8,8a-hexahydro-1,3a,8-trimethylpyrrolo[2,3-b]indol-5-ol]
ED50 ([5]; po, po): 0.36 mg/kg

CN1CC[C@@]2(C)c3cc(OC(=O)N4CC5CCC(CC5)C4)ccc3N(C)[C@@H]12 [(3aS-cis)-1,2,3,3a,8,8a-Hexahydro-1,3a,8-trimethylpyrrolo[2,3-b]indol-5-ol,[3-[3-azabicyclo[3.2.2]nonyl]]carbamate ester fumarate]
IC50 [1]: 0.84 µM
responders at 5 mg/kg [2]: 33%
IC50 [3]: > 1000 µM

CCC1CCC(NC(=O)Oc2ccc3c(c2)[C@]2(C)CCN(C)[C@@H]2N3C)CC1 (stereo partly drawn) [(3aS-cis)-1,2,3,3a,8,8a-Hexahydro-1,3a,8-trimethylpyrrolo[2,3-b]indol-5-ol,4-ethylcyclohexyl carbamate ester]
IC50 (norepinephrine uptake): 2.6 µM

CN1CC[C@@]2(C)c3cc(O)cc(Br)c3N(C)[C@@H]12 (relative stereo) [(3aS-cis)-7-bromo-1,2,3,3a,8,8a-hexahydro-1,3a,8-trimethylpy] [(3aS-cis)-7-Bromo-1,2,3,3a, 8,8a-hexahydro-1,3a,8-trimethylpyrrolo[2,3-b]indol-5-ol]
ANALGESIC ACTIVITY (ED50), Modified Haffner's Analgesia [4]: 0.55 mg/kg
ANALGESIC ACTIVITY (ED50), PQW ([5]; sc): 0.041 mg/kg

CCN1CCC2(C)c3cc(O)cc(Br)c3N(C)C12 (centres unmarked) [7-Bromo-1-ethyl-1,2,3,3a,8,8a-hexahydro-3a,8-dimethylpyrrolo[2,3-b]indol-5-ol salicylate]
ED50 [4]: 1.94 mg/kg
ED50 ([5]; sc, sc): 2.52 mg/kg

CC(=O)Oc1cc([N+](=O)[O-])c2c(c1)[C@]1(C)CCN(C)[C@@H]1N2C [(3aS-cis)-1,2,3,3a,8,8a-Hexahydro-1,3a,8-trimethyl-7-nitropyrrolo[2,3-b]indol-5-ol acetate fumarate]
ED50 [4]: 3.6 mg/kg
ED50 ([5]; sc, sc): 1.5 mg/kg

CNC(=O)Oc1cc(C)c2c(c1)[C@]1(C)CCN(C)[C@@H]1N2C [(3aS-cis)-1,2,3,3a,8,8a-Hexahydro-1,3a,7,8-tetramethylpyrrolo[2,3-b]indol-5-ol, methyl carbamate ester]
IC50 [1]: 0.012 µM

CN1CC[C@@]2(C)c3cc(OC(=O)C(C)(C)C)cc(Br)c3N(C)[C@@H]12.Cl (relative stereo) [(3aS-cis)-7-Bromo-1,2,3,3a,8,8a-hexahydro-1,3a,8-trimethylpyrrolo[2,3-b]indol-5-ol, trimethylacetate hydrochloride]
ED50 [4]: 0.6 mg/kg
ED50 ([5]; sc, sc): 0.8 mg/kg

CCN(CC)C(=O)Oc1cc2c(cc1Br)N(C)[C@H]1N(C)CC[C@@]21C [(3aS-cis)-6-bromo-1,2,3,3a,8,8a-hexahydro-1,3a,8-trimethylpyrrolo[2,3-b]indol-5-ol, N,N-diethyl carbamate ester]
responders at 5 mg/kg [2]: 40%

CN1CC[C@@]2(C)c3cc(O)ccc3N(C)[C@@H]12 [eseroline salicylate, reference compound]
ED50 [4]: 0.18 mg/kg
ED50 ([5]; sc, sc): 0.52 mg/kg
